Measurements published in BindingDB's records for patent US11306098 (Venenum Biodesign, 2022).

How the values were obtained:
[1] = target: T1, Three-prime repair exonuclease 1 (Mus musculus, UniProt Q91XB0)
T1 sequence (Q91XB0 whole entry): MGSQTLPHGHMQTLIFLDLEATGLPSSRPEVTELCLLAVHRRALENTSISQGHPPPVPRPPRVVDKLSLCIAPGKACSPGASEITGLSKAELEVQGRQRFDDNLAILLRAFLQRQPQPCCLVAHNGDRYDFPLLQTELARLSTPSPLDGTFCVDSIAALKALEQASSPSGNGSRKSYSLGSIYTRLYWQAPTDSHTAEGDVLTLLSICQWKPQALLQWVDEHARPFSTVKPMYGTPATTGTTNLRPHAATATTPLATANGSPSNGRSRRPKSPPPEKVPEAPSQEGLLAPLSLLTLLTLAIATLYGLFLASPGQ

[2] = target: T2, Three-prime repair exonuclease 1 (Homo sapiens, UniProt Q9NSU2); experiment: Exonuclease Assay
T2 sequence (Q9NSU2 whole entry): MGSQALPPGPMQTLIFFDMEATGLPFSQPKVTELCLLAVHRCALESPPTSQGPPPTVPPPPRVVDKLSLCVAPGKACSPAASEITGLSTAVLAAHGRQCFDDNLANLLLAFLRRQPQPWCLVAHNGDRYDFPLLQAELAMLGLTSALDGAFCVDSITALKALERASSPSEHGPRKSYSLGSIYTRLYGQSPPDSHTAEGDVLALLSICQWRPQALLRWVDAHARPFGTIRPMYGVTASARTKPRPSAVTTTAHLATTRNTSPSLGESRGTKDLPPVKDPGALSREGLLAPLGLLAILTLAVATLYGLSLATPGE
Experimental: To evaluate the effect of compounds on TREX1 activity, test compounds were serially diluted (11-point, 3-fold) from 10 mM stock solutions and delivered to 384-well low-volume assay plates in 80 nL DMSO using an acoustic dispenser. Next, 4 μL of human TREX1 (0.5 nM), or murine TREX1 (1 nM), diluted in assay buffer (20 mM Tris pH 7.5, 5 mM MgCl2, 100 μg/mL BSA, 0.002% Triton X-100, 2 mM DTT), was added to the assay plate. After incubating for 30 minutes, 4 μL of labeled DNA oligonucleotide (500 nM) in assay buffer was added to initiate TREX1 exonuclease activity. The reaction was allowed to proceed for 45 minutes at room temperature prior to the addition of 4 μL of 150 mM EDTA to halt TREX1 activity. Assay plates were equilibrated for an additional 30 minutes and read on an EnVision Plate Reader (Perkin Elmer) to measure fluorescence emission at 535 nm following excitation at 485 nm. Fluorescence was plotted as a function of log molar compound concentration and fit to four-parameter dose-response equation to determine compound IC50.

Row | Compound | IC50 [1] [nM] | IC50 [2] [nM]
1 | N[C@@H]1C[C@H]2C(=O)N([C@H](CO)C(=O)NCc3ccc(Cl)c(Cl)c3)CCC(CCc3ccccc3)N2C1 (some centres undefined) [US11306098, Example 3] | < 1000 | < 1000
2 | CC(C)C[C@H](C(=O)NCc1ccc(Cl)c(Cl)c1)N1CCC(CCc2ccccc2)N2C[C@H](N)C[C@H]2C1=O (some centres undefined) [US11306098, Example 1] | < 1000 | < 1000
